Measurements published in patent US20240198337A1, “Bone Marrow on a Chip” (NEW YORK UNIVERSITY, priority 2021, published 2024).

How the values were obtained:
[1] = system: ETV6-RUNX1+ REH and Ph+ SUP-B15 human B-ALL cell lines; test: Chemo-resistance of engineered human B-ALL BM niches to increasing doses of vincristine (Leukemia-on-a-Chip); type: cell-based; details: B-ALL co-cultured with niche cells
Excerpt: FIG. 4A through FIG. 4G depicts modeling the leukemic bone marrow (BM) niche in a Leukemia-on-a-Chip platform. […] (FIG. 4C) The Hematoxylin and Eosin (H&E) staining image of the in vivo murine leukemic BM niche, with the enlarged area from showing the co-localization of B-ALL cells respectively within the perivascular and endosteal niches. (FIG. 4D) The chemo-resistance was compared between the engineered human BM niches of ETV6-RUNX1+ REH and Ph+ SUP-B15 B-ALL. Each drug concentration had >3 experimental replicates. (FIG. 4E) The cytokine profiles from two B-ALL blasts with and without niche cells were quantified using membrane-based ELISA analysis. (FIG. 4F) The quantification of nuclear (nuc)/cytoplasmic (cyto) ratio of NF-κB in REH and SUP B-ALL within their respective niche models. The ratios for REH and SUP were manually measured from 3 experimental replicates (N>150). […]
The outcome of drugs was defined by the viability of B-ALL cells as a cytotoxic end point after drug treatment. […] The cell viability was quantitatively determined by using Calcein-AM (Thermo Fischer Scientific) and DAPI, which respectively stained the live and dead cells. […] Afterward, cells were observed under a fluorescence microscope, and cellular viability was quantitatively measured by counting the number of objects in the green (live cells) and red (dead cells) channels. […]

murine Ph+ B-ALL cells = test: Drug resistance testing: B-ALL cell viability in 3D hydrogel devices (Calcein-AM/DAPI); type: cell-based; details: NIL 1 μM, PRE 1 μM, VCR 0.1 μM; for B-ALL drug-induced cell death (chemo-resistance): presence of niche cells
Procedure: The outcome of drugs was defined by the viability of B-ALL cells as a cytotoxic end point after drug treatment. B-ALL cells were cultured alone or co-cultured with niche cells in 3D hydrogel devices for 24 hr, and then incubated with 1 μM nilotinib (NIL, Cayman Chemical), 1 μM prednisone (PRE, Sigma), and 0.1 μM vincristine (VCR, Sigma) for 48 hr. The cell viability was quantitatively determined by using Calcein-AM (Thermo Fischer Scientific) and DAPI, which respectively stained the live and dead cells. Briefly, cells were rinsed thrice with PBS and incubated with Calcein-AM and DAPI ([…] and 5 μg/mL in PBS or medium) solution for 30 min at 37° C., followed by a final rinse with PBS. Afterward, cells were observed under a fluorescence microscope, and cellular viability was quantitatively measured by counting the number of objects in the green (live cells) and red (dead cells) channels. Untreated groups of B-ALL cells were used as controls to benchmark the drug resistance of different groups.

REH B-ALL blasts = test: REH viability cultured with hematopoietic cells under VCR treatment; type: cell-based, human; details: 48 hr treatment of 20 nM VCR; co-culture with CD34+ HSPC-derived hematopoietic cells
Excerpt: FIG. 13A through FIG. 13L depict the results of niche cells functioning disparately to regulate leukemia progression. (FIG. 13A) Membrane-based ELISA analysis of CXCL12 secretion of ECs (Top left) and MSCs (Top right). Western blotting of CXCL12 expression of ECs (Bottom left) and MSCs (Bottom right). (FIG. 13B) VCAM-1 expression of ECs and the quantification result (N>200). (FIG. 13C) OPN expression of 2D cultured MSCs and the quantification result (N>200). (FIG. 13D) The correlation between distance of B-ALL to MSCs and dye retaining ability of B-ALL (N>120). B-ALL with lower DiD intensity was excluded as indicated by the dash line. (FIG. 13E) and (FIG. 13F) The flow cytometric images showing DiD dye retained in B-ALL, i.e. low (Lo), middle (Mid), and high (Hi) intensity. (FIG. 13G) The representative images showing p21 expression in B-ALL located in the perivascular and endosteal niches (N=54). (FIG. 13H) B-ALL viability in the two niches treated with different drugs. (FIG. 13I) NF-κB activation in REH after co-cultured with hematopoietic cells. […] (FIG. 13L) The quantified number of CD34+ cells. […]
The contributing mechanisms from hematopoietic cells was then investigated. […] Furthermore, healthy bone marrow mononuclear cells were cultured with and without REH blasts in the leukemia systems for day 1 and day 9 and the number of CD34+ cells was quantified. […]

## CC[C@]1(O)C[C@H]2CN(CCc3c([nH]c4ccccc34)[C@@](C(=O)OC)(c3cc4c(cc3OC)N(C=O)[C@H]3[C@@](O)(C(=O)OC)[C@H](OC(C)=O)[C@]5(CC)C=CCN6CC[C@]43[C@@H]65)C2)C1 [vincristine]
[1]
  chemotherapy sensitivity (chemo-resistance) of REH versus SUP BM niches: SUP B-ALL co-cultured with niche cells showing more resistant to VCR than REH co-cultured with niche cells
Murine Ph+ B-ALL cells; 2-day treatment
  viability of B-ALL cells in perivascular versus endosteal niche: a stronger dormancy and chemo-resistance of B-ALL cells in the endosteal niche
Murine Ph+ B-ALL cells; absence of niche cells, 48 hr
  B-ALL eradication (viability): efficient B-ALL eradication
Murine Ph+ B-ALL cells; 48 hr
  B-ALL drug-induced cell death (chemo-resistance): chemo-resistance phenomenon was confirmed
Murine Ph+ B-ALL cells; 48 hr, listed as VCR
  B-ALL drug-induced cell death (chemo-resistance): partial rescue of drug-induced cell death
REH B-ALL blasts
  REH viability / chemo-resistance with hematopoietic cells: hematopoietic cells also promoted NF-κB activation in B-ALL cells and chemo-resistance to VCR treatment
